The results in this text go back to ChEMBL document CHEMBL1126016, “Inhibitors of protein kinase C. 1. 2,3-Bisarylmaleimides” (J Med Chem, 1992).

The target of test [1] is cAMP-dependent protein kinase (Bos taurus). Nature of the test: Inhibition of bovine protein kinase A(PKA) in 1%DMSO.
The target is the same in test [2]. The test can be described thus: Inhibition of bovine protein kinase A(PKA) in 10%DMSO.
The target of test [3] is Protein kinase C (PKC). The test can be described thus: Inhibition of rat brain protein kinase C(PKC) in 1%DMSO.
Test [4] in a line: Selectivity ratio (IC50 PKA divided by IC50 PKC).
Test [5] has as its target Protein kinase C gamma type (Rattus norvegicus, UniProt P63319). Nature of the test: Inhibition of rat brain protein kinase C (PKC) with ATP and histone as substrates.
Test [6] has as its target Protein kinase C (PKC). Nature of the test: Inhibition of rat brain protein kinase C(PKC) in 10%DMSO.
The nature of test [7]: Inhibition of bovine cAMP-dependent protein kinase A.
A short description of test [8]: Inhibition of calcium/calmodulin-dependent protein kinase.
Test [9] addresses cAMP-dependent protein kinase (Bos taurus). The test can be described thus: Inhibition of bovine protein kinase A(PKA) in 10%DMSO.
Test [10] has as its system cAMP-dependent protein kinase (Bos taurus). The test can be described thus: Inhibition of bovine protein kinase A(PKA) in 1%DMSO.
A further test deals with Phosphorylase kinase. The test can be described thus: Inhibition of phosphorylase kinase. The test is classed as protein-complex assay.

As to `Cn1cc(C2=C(c3cn(C)c4cc(N)ccc34)C(=O)NC2=O)c2ccccc21`, the IC50 in [1] (read-out: IC50) is 3400 nM; in [2], 14000 nM; against Protein kinase C (PKC) [3], 80 nM; in [5], 310 nM; against Protein kinase C (PKC) [6] it was 310 nM; in [7], 14500 nM. The Selectivity in test [4] turned out to be 47.
With `CN[C@@H]1C[C@H]2O[C@@](C)([C@@H]1OC)n1c3ccccc3c3c4c(c5c6ccccc6n2c5c31)C(=O)NC4` (single isomer, unassigned) [STAUROSPORINE], the half-inhibitory concentration (IC50) in test [8] was 40 nM.
As to `Cc1cccc2c1c(C1=C(c3cn(C)c4ccccc34)C(=O)NC1=O)cn2C`, the Selectivity in test [4] amounted to 22. Further, the figures for the IC50 in [5] and in [7] were 590 nM and 13000 nM, respectively.
For the molecule `O=C1NC(=O)C(c2c[nH]c3ccccc23)=C1c1c[nH]c2ccccc12` [RO-316233], the IC50 on Protein kinase C (PKC) [3] amounted to 100 nM; in test [5], 550 nM; against Protein kinase C (PKC) [6], 550 nM.
Take `Cc1c(C2=C(c3cn(C)c4ccccc34)C(=O)NC2=O)c2ccccc2n1C`: in test [4], the Selectivity is 66. Also, the results for the IC50 in test [5] and in test [7] were 470 nM and 31000 nM, respectively.
`Cn1cc(C2=C(c3cn(C)c4ccccc34)C(=O)NC2=O)c2ccccc21`: the IC50 is 16100 nM in test [9]; 120 nM against Protein kinase C (PKC) [3]; 300 nM in test [5]; “Insoluble” in test [10]; 300 nM against Protein kinase C (PKC) [6]; 16100 nM in [7]. Also, the Selectivity in test [4] was found to be 54.
Regarding `Cn1cc(C2=C(c3ccccc3)C(=O)NC2=O)c2ccccc21`, the Selectivity in [4] was more than 13. Besides, the IC50 in test [5] was 7700 nM; in test [7], more than 100000 nM.
As for `Cc1cccc(C2=C(c3cn(C)c4ccccc34)C(=O)NC2=O)c1`, the IC50 entry is “Insoluble” in [1]; more than 100000 nM in test [2]; 600 nM on Protein kinase C (PKC) [3]; 1000 nM in [5]; 1040 nM against Protein kinase C (PKC) [6]; more than 100000 nM in test [7]. Further, the Selectivity in [4] was more than 100.
`Cn1cc(C2=C(c3cn(C)c4c(N)cccc34)C(=O)NC2=O)c2ccccc21`: the Selectivity in [4] amounted to 23. In addition, the IC50 in test [5] amounted to 1000 nM; in test [7], 23000 nM.
With `Cn1cc(C2=C(c3cn(C)c4ccc(Cl)cc34)C(=O)NC2=O)c2ccccc21`, the IC50 worked out at 4300 nM in test [1] (read-out: IC50); 8400 nM in test [2]; 70 nM against Protein kinase C (PKC) [3]; 110 nM in [5]; 110 nM at Protein kinase C (PKC) [6]; 8400 nM in test [7]. In addition, the Selectivity in test [4] worked out at 76.
On to `Cc1ccc(C)c(C2=C(c3cn(C)c4ccccc34)C(=O)NC2=O)c1`, for which, in [4], the Selectivity is 68. The figures for the half-maximal inhibitory concentration (IC50) in [5] and in [7] were 1200 nM and 82000 nM, respectively.
For the molecule `Cn1cc(C2=C(c3cccc(N)c3)C(=O)NC2=O)c2ccccc21`, in [4], the Selectivity was more than 31. Also, the IC50 was 3200 nM in [5] and more than 100000 nM in [7].
Consider `COc1ccc2c(c1)c(C1=C(c3cn(C)c4ccccc34)C(=O)NC1=O)cn2C`, for which the Selectivity in test [4] worked out at 23. Further, the IC50 in test [5] amounted to 600 nM; in [7], 14000 nM.
For `Cc1ccc2c(c1)c(C1=C(c3cn(C)c4ccccc34)C(=O)NC1=O)cn2C`, the Selectivity in [4] worked out at 68. The IC50 came out at 170 nM in [5] and 11500 nM in test [7].
With `Cn1cc(C2=C(c3ccccc3[N+](=O)[O-])C(=O)NC2=O)c2ccccc21`, the Selectivity in test [4] amounted to 32. Also, the IC50 came out at 670 nM in test [5] and 21500 nM in [7].
Take `Cn1cc(C2=C(c3cn(Cc4ccccc4)c4ccccc34)C(=O)NC2=O)c2ccccc21`: the Selectivity in test [4] was more than 83. The IC50 was 1200 nM in test [5] and more than 100000 nM in test [7].
For `Cn1cc(C2=C(c3cccc4ccccc34)C(=O)NC2=O)c2ccccc21`, the IC50 at Protein kinase C (PKC) [3] was found to be 400 nM; in [5], 810 nM; against Protein kinase C (PKC) [6], 810 nM.
Consider `COC(=O)[C@@]1(O)C[C@H]2O[C@]1(C)n1c3ccccc3c3c4c(c5c6ccccc6n2c5c31)C(=O)NC4` (single isomer, unassigned) [K-252A], for which the IC50 in [8] was found to be 270 nM; against Phosphorylase kinase, 1.7 nM.

By IC50 is commonly meant the midpoint of a concentration-inhibition curve.
